Measured values from PMC12426930, “Antioxidant, Hypotensive, and Antidiabetic Breakthroughs: Bromelain Hydrolysis Unlocks Quinoa’s Peptide Potential - In Silico and In Vitro Approach” (Journal of Agricultural and Food Chemistry, 2025).
Marks after values point to notes of the source that are not given here.

How the values were obtained:
DPP-IV = tested on: DPP-IV; parameters: method as in Vilcacundo et al. [40]; details: 250 μM; ref Vilcacundo et al. [40]; cited from earlier work
α-glucosidase = details: 250 μM; ref Vilcacundo et al. [40]; cited from earlier work
Description: The inhibitory effects of quinoa-derived peptides (YDDER, NIYQIS, and QDQHQKIR) toward α-glucosidase are depicted in Table .

α-amylase = details: ref Zhou et al. [70]; cited from earlier work
Description: As α-amylase plays a significant role in T2DM, this study investigated the inhibitory effects of synthetic quinoa peptides on this enzyme.

Fe^2+ chelation assay = details: 125 μM; ferrozine, pH 4.9, 37 °C, 10 min; mean ± SD, n = 9
Experimental: Fe^2+ chelation assay was measured according to Sanchez-Velazquez et al. with slightly modifications. 25 μL of sample (synthetic peptides, […]) or positive control (EDTA, 0.1 μg/μL) was added to 225 μL of buffer (sodium acetate, 100 mM, pH 4.9), then 15 μL of iron solution (0.1%, w/v) and 9 μL of ferrozine (40 mM) were added to start the reaction. For the blank well, 250 μL of buffer was added to the iron solution and ferrozine. The reaction was incubated 10 min at 37 °C and then read at 562 nm (SPARK-10M, TECAN, Switzerland). Fe^2+ chelating activity was calculated as described previously for copper.

human DPP-IV = test: DPP-IV inhibitory activity; format: biochemical; details: H-Gly-Pro-pNA, 37 °C, mean ± SD, n = 9
Experimental: Dipeptidyl peptidase-IV (DPP-IV) inhibitory activity was measured following the method by Vilcacundo et al., with slightly modifications. […] For the negative control 70 μL of Tris Buffer was added. Finally, 100 μL of substrate (H-Gly-Pro-pNA, 100 mM) was added to all wells. The reaction was performed at 37 °C in the microplate reader (BioTek Instruments, Winooski, VT, USA), and the reaction was read at 405 nm for 30 min, with reading intervals of 2 min. Finally, data were plotted and fitted to a logarithmic regression to obtain dose–response curves.

[1] = tested on: rat intestinal acetone α-glucosidase; test: α-Glucosidase inhibition; format: biochemical
Experimental: α-Glucosidase inhibition assay was measured following the method of Vilcacundo et al., with slightly modifications. First, 100 μL of sample ([…]), positive control (1 mM acarbose), and/or negative control (Milli-Q-water), were added to 50 μL of rat intestinal acetone α-glucosidase (1 U/mL in 0.1 M, maleate buffer pH 6.9), and the mixture was incubated at 37 °C for 5 min. Then, 50 μL of substrate (2 mM maltose) was added into each tube, which was performed in a Thermomixer (37 °C, 1000 rpm, for 30 min). Finally, the reaction was stopped at 100 °C for 5 min. The glucose concentration in the reaction was measured using GOPOD (glucose oxidase/peroxidase) from Megazyme, with absorbance measured at 560 nm (Gen5 software, version 1.1, BioTek Instruments, Winooski, VT, USA). The percentage of inhibition was calculated relative to the non-inhibited control (negative control).

[2] = tested on: 15-LOX enzyme (soybean lipoxygenase); test: Lipoxygenase inhibitor screening assay (LOX); format: biochemical; details: 31.25 μM; linoleic acid 1 mM, RT, 490 nm
Experimental: Lipoxygenase inhibitory activity assay (LOX) was determined following the manufacturer’s instructions (#760700). Thus, peptide concentrations (31.25–125 μM) were prepared with the assay buffer and tested in triplicate. First, 10 μL of the peptides at each concentration was mixed with 90 μL of 15-LOX enzyme (soybean lipoxygenase) in a 96-well plate. Then, three wells each contained assay buffer as blank (without enzyme), assay buffer as vehicle (with enzyme), and 15-LOX as positive control. Afterward, 10 μL of linoleic acid (1 mM) (substrate) was added to all wells and shaken for 10 min at RT. Finally, 100 μL of chromogen was added to all wells, and the plate was sealed and shaken for an additional 5 min at RT. The final reaction was measured at 490 nm, and the percentage of inhibition was calculated as. %inhibition=[1−Correctedvaluesofpeptide/Correctedvaluesofvehicle]×100

[3] = tested on: porcine pancreatic α-amylase (PPA); test: α-Amylase inhibition; format: biochemical; details: CNPG3 substrate, 405 nm, 37 °C, mean ± SD, n = 9
Experimental: α-Amylase inhibition activity was performed using the 3,5-dinitrosalicylic acid (DNS) assay according to Zulfiqar et al. […] Then, 50 μL of substrate (2-chloro-4-nitro-[…] (CNPG3) (2 mM)) was added per well. Finally, absorbance was recorded at 405 nm (SPARK-10M, TECAN, Switzerland) at 37 °C for 10 min in 1-min intervals. The percentage of enzyme inhibition was calculated in relation to 100% enzymatic activity in the negative control (phosphate-buffered saline (PBS) buffer, enzyme, and substrate).

Cu^2+ chelation assay = details: pyrocatechol violet, pH 6.0, 37 °C, 10 min, mean ± SD, n = 9
Experimental: Cu^2+ chelation assay was determined according to Sanchez-Velazquez et al., with slight modifications. Briefly, 21 μL of sample (synthetic peptides, […]) or positive control (EDTA, 0.1 μg/μL) was added to 185 μL of buffer (sodium acetate, 50 mM, pH 6.0), and then 15 μL of copper solution (10 μg) and 9 μL of pyrocatechol violet (2 mM) were added for the reaction. For the blank well, 205 μL of buffer was added to the copper and pyrocatechol violet reaction mixture. The reaction was incubated for 10 min at 37 °C and then read at 632 nm (SPARK-10M, TECAN, Switzerland). Cu^2+ chelating activity was calculated as: %Chelatingactivity=Abscontrol−Abssample/Abscontrol×100

[4] = tested on: angiotensin I converting enzyme; test: ACE-I inhibitory activity (fluorometric kit CS0002); format: biochemical; details: fluorometric kit, 37 °C, mean ± SD, n = 9
Experimental: ACE-I inhibitory assay was determined by ACE-I activity assay kit (fluorometric, CS0002). This assay is based on the hydrolysis of angiotensin I by ACE to yield angiotensin II. Briefly, all reagents were diluted in the assay buffer, and a total of 50 μL of peptide sample, positive control (captopril PHR1307), and assay buffer (blank) were added to a 96-well black plate. The standard was added at 0, 0.1, 0.2, 0.3, 0.4, 0.5, 0.6, and 0.8 nmol and adjusted to a final volume of 100 μL. […] Finally, fluorescence (λex, 320 nm; λem, 405 nm) was measured in five cycles for 5 min. Linear regressions were determined to calculate the enzymatic activity for each sample per concentration. Thus, one unit was defined as the amount of enzyme that releases 1 nmol of fluorescent substrate in 1 min at 37 °C. Finally, the inhibition (%) of each peptide and positive control was determined using regression analysis of the corresponding dose–response curves.

[5] = Oxygen radical absorbance capacity (ORAC) assay; details: AAPH, fluorescein, 37 °C, 150 min
Experimental: Oxygen radical absorbance capacity (ORAC) assay was performed following the method of Carvalho-Oliveira et al. Briefly, 30 μL of peptide (different concentrations 50–1000 μM) or standard (Trolox at 0–160 μM) were placed in a black 96-well plate. The reaction mixture comprised 180 μL of fluorescein (116.9 nM) and 90 μL of 2,2’-azobis(2-amidinopropane) dihydrochloride (AAPH) (40 mM). Finally, the fluorescence was recorded every 2 min for 150 min at excitation and emission wavelengths of 485 and 520 nm, respectively. All reactions were performed at 37 °C. The results were expressed as μmol Trolox equivalent (TE)/μmol of peptide. Quantification and interpretation of the data were done by Gen5 software, version 1.1 (BioTek Instruments, Winooski, VT, USA).

[6] = ref Zheng et al. [24]; cited from earlier work
Description: (§1) Yudho-Sutopo et al. reported the ACE-I inhibitory activity of four synthetic peptides from pearl garlic (DHSTAVW, KLAKVF, KLSTAASF, and KETPEAHVF). […] According to Yudho-Sutopo et al., the hydrophobic amino acid in the C-terminal and amino acids with a positively charged side-chain amino group, like in DHSTAVW, are determinants in the inhibition of ACE-I. Furthermore, a study by Zheng et al. reported an ACE-I inhibitory peptide – RGQVIYVL – from Chenopo ...

ACE-I = details: Chenopodium quinoa Willd peptide; ref Zheng et al. [24]; read-out: ACE-I inhibition IC50; cited from earlier work
Description: as §1

## IQAQGGLT [DPP-IV quinoa-derived peptide reported by Vilcacundo et al]
DPP-IV
  DPP-IV inhibition: 17.05%

## IQEGGLT [quinoa-derived peptide reported by Vilcacundo et al]
α-glucosidase
  α-glucosidase inhibition: 55.85%

## MMFPH [quinoa-derived peptide reported by Zhou et al]
α-amylase
  α-amylase inhibition: stronger α-amylase inhibition

## QDQHQKIR [quinoa 11S globulin peptide, custom-synthesized by GenScript, purity 95%]
Fe^2+ chelation assay
  Fe^2+ chelating activity: 5.11 ± 1.0%
Human DPP-IV; 125 μM
  DPP-IV inhibition: ND (no inhibitory effect was observed at the given concentration)
Human DPP-IV; 250 μM
  DPP-IV inhibition: ND (no inhibitory effect was observed at the given concentration)
Human DPP-IV; 500 μM
  DPP-IV inhibition: 5.26 ± 0.30^c %
[1]; 300 μM, 2 mM maltose, pH 6.9, 37 °C, mean ± SD, n = 9
  α-glucosidase inhibition: ND (no inhibitory effect was observed at the given concentration)
[1]; 400 μM, 2 mM maltose, pH 6.9, 37 °C, mean ± SD, n = 9
  α-glucosidase inhibition: ND (no inhibitory effect was observed at the given concentration)
[1]; 500 μM, 2 mM maltose, pH 6.9, 37 °C, mean ± SD, n = 9
  α-glucosidase inhibition: ND (no inhibitory effect was observed at the given concentration)
[1]; any of the tested concentrations (100–500 μM)
  α-glucosidase inhibition: did not present any α-glucosidase inhibition
[2]
  LOX inhibition: 8.44%
[3]; 300 μM
  α-amylase inhibition: 18.43 ± 0.33^a %
[3]; 400 μM
  inhibition: 15.6 ± 0.34%
[3]; 500 μM
  α-amylase inhibition: 15.37 ± 0.35^b %
Cu^2+ chelation assay; 15.62 μM
  Cu^2+ chelating activity: 39.79 ± 1.4%
Cu^2+ chelation assay; 31.25 μM
  Cu^2+ chelating activity: 37.46 ± 0.26%
Cu^2+ chelation assay; 62.5 μM
  Cu^2+ chelating activity: 40.8 ± 0.31%
[4]; 125 μM
  ACE-I inhibition: 6.8 ± 0.56^f %
[4]; 250 μM
  inhibition: 9.75 ± 0.21%
[5]
  ORAC: 0.02 μmol TE/μmol peptide
[5]; mean ± SD, n = 9
  ORAC: 0.02 ± 0.00^c μM TE/μM Peptide

## RGQVIYVL
[6]
  hydrophobic residue content: 62.50%
ACE-I
  IC50: 38.2 µM
